From article PMC7717570, “Deciphering the enzymatic target of a new family of antischistosomal agents bearing a quinazoline scaffold using complementary computational tools” (Journal of Enzyme Inhibition and Medicinal Chemistry, 2020)
Where two headings read alike, the source gives them in different places. One block for each molecule: values may come before it.

Legend:
[1] = Microsomal stability, mouse liver microsomes (S9), Phase-I (CYP450-NADPH); type: in vitro ADME; conditions: 5 µM
Method: (§1) Mouse or human liver microsomes (S9), reduced nicotinamide adenine dinucleotide phosphate (NADPH) generating system solutions and uridine glucuronosyltransferase (UGT) reaction mix (BD Biosciences) were kept at −80 °C. The test compounds and reference compound diclofenac were formulated in DMSO at […]. The assay was carried out based on the BD Biosciences Guidelines for Use (TF000017 Rev1.0) with minor adaptations. The metabolic stability of the compounds was studied through the CYP450 superfamily (Phase-I metabolism) by fortification with NADPH and through UGT enzymes (Phase-II metabolism) by fortification with uridine diphosphate glucuronic acid (UDPGA). For CYP450 and other NADPH dependent enzymes, the compounds were incubated at 5 µM together with 0.5 mg/mL S9 in potassium phosphate buffer in a reaction started by the addition of 1 mM NADP. At defined time points, 20 µL was withdrawn from the reaction mixture and 80 µL cold acetonitrile (ACN) was added to inactivate the enzymes and precipitate the protein. The mixture was vortexed for 30 s and centrifuged at 4 °C for 5 min to collect the supernatant. For UGT enzymes, the compounds were incubated at 5 µM together with 0.5 mg/mL S9 in a reaction started by the addition of 2 mM UDPGA cofactor. The loss of parent compound was determined using liquid chromatography (UPLC) (Waters Aquity^TM) coupled with tandem quadrupole mass spectrometry (MS^2) (Waters Xevo^TM), equipped with an electrospray ionisation (ESI) interface and operated in multiple reaction monitoring (MRM) mode.

[2] = Microsomal stability, mouse liver microsomes (S9), Phase-II (UGT enzymes); type: in vitro ADME; conditions: 5 µM
Method: as §1

[3] = tested on: S. mansoni-infected mouse model; assay: In vivo antischistosomal efficacy in the S. mansoni-infected mouse model; set-up: species or system Schistosoma mansoni; conditions: mice; for Reduction in total worm burden (percentage change from infected control): sacrificed 10 days post-treatment
Method: PZQ was obtained from Egyptian International Pharmaceutical Industries Company (EIPICO) and aminobenzotriazole (ABT) from Fluorochem Ltd.
Male Swiss albino mice (CD-1) obtained from SBSC and weighing 18–20 g were housed under environmentally controlled room temperature of 20–22 °C, 12 h light/dark cycle and 50–60% humidity with food and water ad libitum throughout the acclimatisation and experimental periods. All the animal experiments were conducted in accordance with the Guide for Care and Use of Laboratory Animals and were approved by the Institutional Review Board of Theodor Bilharz Research Institute (TBRI).
Mice were infected with S. mansoni cercariae [provided by Schistosome Biology Supply Center (SBSC)] using body immersion[16] by exposure to 80 ± 10 cercariae/mouse. Infected mice were divided into six groups: groups 1 and 2 were treated the vehicle and the CYP450 inhibitor ABT respectively; groups 3 and 4 were dosed for 5 days with NPD-1246 at 20 and 10 mg/kg, respectively, while group 5 was treated with PZQ at 10 mg/kg/day for 5 days. Group 6 was treated with NPD-1246 combined with PZQ, each at 10 mg/kg/day for 5 days starting from week 7 post-infection. To minimise first-pass elimination, ABT was administered at 100 mg/kg/day for 5 days 2 h prior to each compound administration. NPD-1246 and PZQ were freshly suspended in 2% Cremophore-EL (Sigma-Aldrich). All drug administrations were performed orally.
Ten days post-treatment, all mice were sacrificed and perfused, and the number of worms recovered (worm burden) was quantified and sexed. The number of eggs per gram of liver or intestinal tissue was counted. The percentage of egg developmental stages (oogram pattern) was studied[19] in which eggs at different stages of maturity (from I to IV) were identified and counted. Mature eggs and dead eggs (granular, dark, and semi-transparent) were also counted in three fragments of intestine and the mean number of each stage was calculated.
The percentage reduction of worm or egg burden in each treated group was calculated. […] Results are expressed as mean ± SEM. A two-tailed, unpaired Student’s t-test was used to detect the significance of difference between the means of different groups. Results are considered significant if p value is <0.05.

[4] = tested on: Schistosoma mansoni mature worms; set-up: method as in PMID 30669086; conditions: cited from earlier work; for Worm killing (% of total) / Worm killing (female worms) / Worm killing (male worms): day 5, previously reported; for EC50: previously reported
[5] = tested on: Schistosoma mansoni worm couples; set-up: method as in PMID 30669086; conditions: previously reported, cited from earlier work
[6] = oral 20 mg/kg/day for 5 days with ABT

% Parent compound remaining upon incubation ([1]; 0 h): 100%
% Parent compound remaining upon incubation ([1]; 0.25 h): 66%
% Parent compound remaining upon incubation ([1]; 0.5 h): 27%
% Parent compound remaining upon incubation ([1]; 1 h): 8%
% Parent compound remaining upon incubation ([2]; 0 h): 100%
% Parent compound remaining upon incubation ([2]; 0.25 h): 111%
% Parent compound remaining upon incubation ([2]; 0.5 h): 111%
% Parent compound remaining upon incubation ([2]; 1 h): 106%
SMILES: O=c1c2ccccc2n(Cc2ccc(C(F)(F)F)cc2)c(=O)n1Cc1ccccc1 [NPD-1246, 3-Benzyl-1-(4-(trifluoromethyl)benzyl)quinazoline-2,4(1H,3H)-dione]
Percentage of dead eggs compared to the infected untreated group [3, 6]: significant increase
Reduction in intestinal tissue egg load (percentage change from infected control) [3, 6]: 18%
Reduction in total worm burden (percentage change from infected control) ([3]; oral 20 mg/kg/day for 5 days with ABT 100 mg/kg/day): 24%
Worm killing (% of total) ([4]; 5 µM): 0%
Worm killing (% of total) ([4]; 10 µM): 0%
Worm killing (% of total) ([4]; 25 µM): 0%
Worm killing (% of total) ([4]; 50 µM): 53%
Worm killing (% of total) ([4]; 100 µM): 100%
Worm killing (female worms) ([4]; female worms, 5 µM): 0
Worm killing (female worms) ([4]; female worms, 10 µM): 0
Worm killing (female worms) ([4]; female worms, 25 µM): 0
Worm killing (female worms) ([4]; female worms, 50 µM): 57
Worm killing (female worms) ([4]; female worms, 100 µM): 100
EC50 ([4]; female worms, read-out: EC50 (worm killing, female worms)): 50 µM
EC50 ([4]; male and female worms, read-out: EC50 (worm killing)): 50 µM
Worm killing (male worms) ([4]; male worms, 5 µM): 0
Worm killing (male worms) ([4]; male worms, 10 µM): 0
Worm killing (male worms) ([4]; male worms, 25 µM): 0
Worm killing (male worms) ([4]; male worms, 50 µM): 50
Worm killing (male worms) ([4]; male worms, 100 µM): 100
EC50 ([4]; male worms, read-out: EC50 (worm killing, male worms)): 50 µM
Uncoupling ([5]; 5 µM): No
Uncoupling ([5]; 10 µM): No
Uncoupling ([5]; 25 µM, listed as NPD-1246 (1)): Uncoupling and Yes
Reduction in number of eggs (%) ([5]; 50 µM): 100%
Uncoupling ([5]; 50 µM, listed as NPD-1246 (1)): Uncoupling and Yes
Reduction in number of eggs (%) ([5]; 100 µM): 100%
Uncoupling ([5]; 100 µM, listed as NPD-1246 (1)): Uncoupling and Yes

SMILES: O=C(C1CCCCC1)N1CC(=O)N2CCc3ccccc3C2C1 (stereo not drawn) [PZQ, praziquantel, reference compound]
Reduction in intestinal tissue egg load (percentage change from infected control) ([3]; oral 10 mg/kg/day (each) for 5 days with ABT): 70%
Reduction in total worm burden (percentage change from infected control) ([3]; oral 10 mg/kg/day (each) for 5 days with ABT 100 mg/kg/day): 63%
Reduction in hepatic tissue egg load (percentage change from infected control) ([3]; oral 10 mg/kg/day (each) for 5 days with ABT, + = increase): 38%
